Laboratory results: ChEMBL document CHEMBL2406981, “Novel pyrazoline amidoxime and their 1,2,4-oxadiazole analogues: synthesis and pharmacological screening” (Bioorg Med Chem Lett, 2013)
Converted amounts (≈) assume the structure as drawn.

Legend:
Assay type in all cases: functional
Shigella flexneri [1] = test: Antimicrobial activity against Shigella flexneri MTCC 1457
Escherichia coli [2] = test: Antimicrobial activity against Escherichia coli MTCC 724
[3] = Antiinflammatory activity against heat-induced albumin denaturation at […] preincubated for 15 mins before heat induction by UV-vis spectrophotometer analysis
[4] = test system: Radical scavenging activity; test: Antioxidant activity assessed as DPPH free radical scavenging activity at 10 ug/ml after 20 mins
[5] = Antioxidant activity assessed as reducing power of ferric ion at 10 ug/ml after 20 mins; set-up: scale not given: the % may be the effect or the level left
Staphylococcus aureus [6] = test: Antimicrobial activity against Staphylococcus aureus MTCC 96 at 100 ug/ml after 24 hrs by agar disc diffusion method; conditions: MTCC 96, 24 h, read-out: DIZ
[7] = test system: Radical scavenging activity; test: Antioxidant activity assessed as DPPH free radical scavenging activity at 100 ug/ml after 20 mins
Aspergillus niger [8] = test: Antimicrobial activity against Aspergillus niger MTCC 281
[9] = Antioxidant activity assessed as reducing power of ferric ion at 100 ug/ml after 20 mins; set-up: scale not given: the % may be the effect or the level left
[10] = Antioxidant activity against ferric chloride-induced lipid peroxidation using egg lecithin at 10 ug/ml after 1 hr
Aspergillus niger [11] = test: Antimicrobial activity against Aspergillus niger MTCC 281 at 50 ug/ml after 24 hrs by agar disc diffusion method; conditions: MTCC 281, 24 h, read-out: DIZ
[12] = Antioxidant activity against ferric chloride-induced lipid peroxidation using egg lecithin at 50 ug/ml after 1 hr
[13] = Antioxidant activity against ferric chloride-induced lipid peroxidation using egg lecithin at 100 ug/ml after 1 hr
Bacillus cereus [14] = test: Antimicrobial activity against Bacillus cereus MTCC 8372 at 50 ug/ml after 24 hrs by agar disc diffusion method; conditions: MTCC 8372, 24 h, read-out: DIZ
Staphylococcus aureus [15] = test: Antimicrobial activity against Staphylococcus aureus MTCC 96
Aspergillus niger [16] = test: Antimicrobial activity against Aspergillus niger MTCC 281 at 100 ug/ml after 24 hrs by agar disc diffusion method; conditions: MTCC 281, 24 h, read-out: DIZ
Shigella flexneri [17] = test: Antimicrobial activity against Shigella flexneri MTCC 1457 at 50 ug/ml after 24 hrs by agar disc diffusion method; conditions: MTCC 1457, 24 h, read-out: DIZ
Klebsiella pneumoniae [18] = test: Antimicrobial activity against Klebsiella pneumoniae MTCC 3384 at 100 ug/ml after 24 hrs by agar disc diffusion method; conditions: MTCC 3384, 24 h, read-out: DIZ
Klebsiella pneumoniae [19] = test: Antimicrobial activity against Klebsiella pneumoniae MTCC 3384
Aspergillus flavus [20] = test: Antimicrobial activity against Aspergillus flavus MTCC 873
[21] = Antioxidant activity assessed as reducing power of ferric ion at 50 ug/ml after 20 mins; set-up: scale not given: the % may be the effect or the level left
Staphylococcus aureus [22] = test: Antimicrobial activity against Staphylococcus aureus MTCC 96 at 50 ug/ml after 24 hrs by agar disc diffusion method; conditions: MTCC 96, 24 h, read-out: DIZ
Bacillus cereus [23] = test: Antimicrobial activity against Bacillus cereus MTCC 8372
Escherichia coli [24] = test: Antimicrobial activity against Escherichia coli MTCC 724 at 100 ug/ml after 24 hrs by agar disc diffusion method; conditions: MTCC 724, 24 h, read-out: DIZ
Shigella flexneri [25] = test: Antimicrobial activity against Shigella flexneri MTCC 1457 at 100 ug/ml after 24 hrs by agar disc diffusion method; conditions: MTCC 1457, 24 h, read-out: DIZ
Klebsiella pneumoniae [26] = test: Antimicrobial activity against Klebsiella pneumoniae MTCC 3384 at 50 ug/ml after 24 hrs by agar disc diffusion method; conditions: MTCC 3384, 24 h, read-out: DIZ
Aspergillus flavus [27] = test: Antimicrobial activity against Aspergillus flavus MTCC 873 at 50 ug/ml after 24 hrs by agar disc diffusion method; conditions: MTCC 873, 24 h, read-out: DIZ
[28] = test system: Radical scavenging activity; test: Antioxidant activity assessed as DPPH free radical scavenging activity at 50 ug/ml after 20 mins
Aspergillus flavus [29] = test: Antimicrobial activity against Aspergillus flavus MTCC 873 at 100 ug/ml after 24 hrs by agar disc diffusion method; conditions: MTCC 873, 24 h, read-out: DIZ
Escherichia coli [30] = test: Antimicrobial activity against Escherichia coli MTCC 724 at 50 ug/ml after 24 hrs by agar disc diffusion method; conditions: MTCC 724, 24 h, read-out: DIZ
Bacillus cereus [31] = test: Antimicrobial activity against Bacillus cereus MTCC 8372 at 100 ug/ml after 24 hrs by agar disc diffusion method; conditions: MTCC 8372, 24 h, read-out: DIZ

MIC (Shigella flexneri [1]) | MIC (Escherichia coli [2]) | MIC (Aspergillus niger [8]) | MIC (Staphylococcus aureus [15]) | MIC (Klebsiella pneumoniae [19]) | MIC (Aspergillus flavus [20]) | SMILES | inhibition [3] | Activity [4] | Activity [5] | zone of inhibition at 100 µg/mL (Staphylococcus aureus [6]) | Activity [7] | Activity [9] | inhibition [10] | zone of inhibition at 50 µg/mL (Aspergillus niger [11]) | inhibition [12] | inhibition [13] | zone of inhibition at 50 µg/mL (Bacillus cereus [14]) | zone of inhibition at 100 µg/mL (Aspergillus niger [16]) | zone of inhibition at 50 µg/mL (Shigella flexneri [17]) | zone of inhibition at 100 µg/mL (Klebsiella pneumoniae [18]) | further results
25 µg/mL (≈ 80.6 µM) | 55 µg/mL (≈ 177 µM) | 15 µg/mL (≈ 48.3 µM) | 50 µg/mL (≈ 161 µM) | 25 µg/mL (≈ 80.6 µM) | 30 µg/mL (≈ 96.7 µM) | COc1ccc(C2=NN(c3ccccc3)C(/C(N)=N/O)C2)cc1 (centres undefined) | 23.8% | 18% | 10% | 12 mm | 55% | 62% | 10% | 10 mm | 16% | 14% | 4 mm | 12 mm | 6 mm | 9 mm | Activity [21]: 22%; zone of inhibition at 50 µg/mL (Staphylococcus aureus [22]): 2 mm; MIC (Bacillus cereus [23]): 35 µg/mL (≈ 113 µM); zone of inhibition at 100 µg/mL (Escherichia coli [24]): 8 mm; zone of inhibition at 100 µg/mL (Shigella flexneri [25]): 10 mm; zone of inhibition at 50 µg/mL (Klebsiella pneumoniae [26]): 6 mm; zone of inhibition at 50 µg/mL (Aspergillus flavus [27]): 5 mm; Activity [28]: 33%; zone of inhibition at 100 µg/mL (Aspergillus flavus [29]): 10 mm; zone of inhibition at 50 µg/mL (Escherichia coli [30]): 3 mm; zone of inhibition at 100 µg/mL (Bacillus cereus [31]): 16 mm
20 µg/mL (≈ 48 µM) | 20 µg/mL (≈ 48 µM) | 10 µg/mL (≈ 24 µM) | 25 µg/mL (≈ 60 µM) | 15 µg/mL (≈ 36 µM) | 15 µg/mL (≈ 36 µM) | Oc1ccc(C2=NN(c3ccccc3)C(c3noc(-c4ccc(Cl)cc4)n3)C2)cc1 (centres undefined) | 74.6% | 30% | 14% | 10 mm | 70% | 76% | 40% | 12 mm | 61% | 80% | 8 mm | 18 mm | 8 mm | 12 mm | Activity [21]: 26%; zone of inhibition at 50 µg/mL (Staphylococcus aureus [22]): 6 mm; MIC (Bacillus cereus [23]): 20 µg/mL (≈ 48 µM); zone of inhibition at 100 µg/mL (Escherichia coli [24]): 14 mm; zone of inhibition at 100 µg/mL (Shigella flexneri [25]): 18 mm; zone of inhibition at 50 µg/mL (Klebsiella pneumoniae [26]): 10 mm; zone of inhibition at 50 µg/mL (Aspergillus flavus [27]): 10 mm; Activity [28]: 51%; zone of inhibition at 100 µg/mL (Aspergillus flavus [29]): 18 mm; zone of inhibition at 50 µg/mL (Escherichia coli [30]): 8 mm; zone of inhibition at 100 µg/mL (Bacillus cereus [31]): 10 mm
50 µg/mL (≈ 126 µM) | 35 µg/mL (≈ 88.3 µM) | 20 µg/mL (≈ 50.4 µM) | 55 µg/mL (≈ 139 µM) | 55 µg/mL (≈ 139 µM) | 15 µg/mL (≈ 37.8 µM) | COc1ccccc1-c1nc(C2CC(c3ccccc3)=NN2c2ccccc2)no1 (centres undefined) | 23.9% | 14% | 10% | 6 mm | 44% | 54% | 11% | 8 mm | 31% | 60% | 2 mm | 14 mm | 3 mm | 6 mm | Activity [21]: 22%; zone of inhibition at 50 µg/mL (Staphylococcus aureus [22]): 2 mm; MIC (Bacillus cereus [23]): 55 µg/mL (≈ 139 µM); zone of inhibition at 100 µg/mL (Escherichia coli [24]): 6 mm; zone of inhibition at 100 µg/mL (Shigella flexneri [25]): 8 mm; zone of inhibition at 50 µg/mL (Klebsiella pneumoniae [26]): 3 mm; zone of inhibition at 50 µg/mL (Aspergillus flavus [27]): 10 mm; Activity [28]: 34%; zone of inhibition at 100 µg/mL (Aspergillus flavus [29]): 12 mm; zone of inhibition at 50 µg/mL (Escherichia coli [30]): 4 mm; zone of inhibition at 100 µg/mL (Bacillus cereus [31]): 8 mm
55 µg/mL (≈ 151 µM) | 40 µg/mL (≈ 110 µM) | 20 µg/mL (≈ 54.9 µM) | 55 µg/mL (≈ 151 µM) | 50 µg/mL (≈ 137 µM) | 15 µg/mL (≈ 41.2 µM) | c1ccc(-c2cc(-c3noc(-c4ccccc4)n3)n(-c3ccccc3)n2)cc1 | 37% | 18% | 10% | 6 mm | 39% | 65% | 26% | 9 mm | 40% | 67% | 5 mm | 18 mm | 3 mm | 6 mm | Activity [21]: 14%; zone of inhibition at 50 µg/mL (Staphylococcus aureus [22]): 3 mm; MIC (Bacillus cereus [23]): 35 µg/mL (≈ 96 µM); zone of inhibition at 100 µg/mL (Escherichia coli [24]): 6 mm; zone of inhibition at 100 µg/mL (Shigella flexneri [25]): 9 mm; zone of inhibition at 50 µg/mL (Klebsiella pneumoniae [26]): 3 mm; zone of inhibition at 50 µg/mL (Aspergillus flavus [27]): 10 mm; Activity [28]: 28%; zone of inhibition at 100 µg/mL (Aspergillus flavus [29]): 10 mm; zone of inhibition at 50 µg/mL (Escherichia coli [30]): 4 mm; zone of inhibition at 100 µg/mL (Bacillus cereus [31]): 8 mm
